In patent publication US20250282798A1, “HETEROARYL-SUBSTITUTED BICYCLIC COMPOUND AND USE THEREOF” (Medshine Discovery Inc., priority 2022, published 2025):

Columns and labels:
[1] = target: human GLK (Homo sapiens (Human), UniProt Q8IVH8); assay: Kinase activity assay using ADP-Glo method, GLK; type: biochemical; details: GLK enzyme concentration 8 nM; ATP 20 μM
Experimental: The IC50 value was assayed by the kinase activity assay using ADP-Glo method to evaluate the inhibitory ability of a test compound on human GLK.
Enzyme buffer conditions: 50 mM Hepes (pH 7.5), 10 mM MgCl2, 1 mM EGTA, 0.01% Brij35, 2 mM DTT.
Preparation of the mixture of kinase and substrate: the concentration of GLK in the reaction solution was 8 nM, the concentration of ATP was […], and the concentration of MBP was 0.05 mg/mL.
(§1) Assay steps: A compound was diluted 4-fold with DMSO in a dilution plate, with a final initial concentration of […] and 10 concentration gradient points. The compound was diluted 50-fold into the kinase reaction buffer, and the mixture was shaken on a shaker for 20 minutes. The kinase was prepared with the enzyme reaction buffer. 2 μL of kinase was added to each well of a reaction plate. 1 μL of the diluted compound in the buffer was added to each well. The plate was sealed with a sealing film, centrifuged at 1000 g for 30 seconds, and placed at room temperature for 10 minutes. The mixed solution of ATP/MBP was prepared with the enzyme reaction buffer. 2 μL of the mixed solution of ATP/MBP was added to the reaction plate. The plate was sealed with a sealing film, and centrifuged at 1000 g for 30 seconds. The mixture in the plate was reacted at room temperature for 60 minutes. 4 μL of ADP-Glo was transferred to the 384 reaction plate, and centrifuged at 1000 rpm/min for 1 min. The plate was incubated at 25° C. for 40 min. 8 μL of detection solution was transferred to the 384 reaction plate, and centrifuged at 1000 rpm/min for 1 min. The plate was incubated at 25° C. for 40 min. The RLU (relative luminescence unit) signal was read with a BMG microplate reader, and the signal intensity was used to characterize the activity of the kinase.
(§2) The kinase activity data were expressed as the comparison of the kinase activity of a group with a test compound and the kinase activity of the blank group (containing only DMSO). The IC50 value was obtained by curve fitting using Prism software (GraphPad7.0).

[2] = In vitro metabolic stability in human liver microsomes; type: in vitro ADME; details: 1 μM compound, 0.5 mg/mL protein
Experimental: The in vitro metabolic stability of the compounds of the present disclosure in human was investigated by the metabolic stability in human liver microsomes.
Assay conditions: 1 μM of a compound was incubated with human liver microsomes supplemented with NADPH regeneration system at 37° C. for a certain period of time up to 60 minutes. The concentration of the compound in the resulting sample was assayed by LC-MS/MS method.
Assay procedure: 96-well incubation plates were named T0, T5, T15, T30, T45, T60, Blank60 and NCF60, respectively. The reaction time corresponding to the incubation plates were 0, 5, 15, 30, 45 and 60 minutes, respectively. No test sample or control compound was added to the Blank60 plate, and samples were taken after 60 minutes of incubation. Potassium phosphate buffer was used instead of NADPH regeneration system solution in the NCF60 plate, and the plate was incubated for 60 minutes. All the samples of the time points were from a single well.
5 μL of a test sample or control sample working solution and 100 μL of microsome working solution (the concentration of liver microsome protein was 0.5 mg/mL) were added to the T0, T5, T15, T30, T45, T60 and NCF60 plates, respectively. Only microsome working solution was added to the Blank60 plate. Then, the Blank60, T5, T15, T30, T45 and T60 plates, except TO and NCF60 plates, were placed in a 37° C. water bath, and preincubated for about 10 minutes.
180 μL of stop solution (the stop solution was a solution of tolbutamide (100 ng/mL) in acetonitrile and methanol (95:5, V/V)) was firstly added to the sample of TO plate, and then the NADPH regeneration system working solution was added.
50 μL of potassium phosphate buffer was added to each well of the NCF60 plate, and the plate was incubated for 60 minutes.
After the pre-incubation of Blank60, T5, T15, T30, T45 and T60 plates, 44 μL of NADPH regeneration system working solution was added to each sample well to initiate the reaction. Therefore, for the sample wells containing a test sample or control sample working solution, the final concentration of the reaction was […], the concentration of liver microsomes was 0.5 mg/mL, and the final concentrations of DMSO and acetonitrile in the reaction system were 0.01% (v/v) and 0.99% (v/v), respectively.
After being incubated for an appropriate time (e.g., 5, 15, 30, 45, and 60 min), 180 μL of stop solution was added to each well of the test sample and control sample of Blank60, T5, T15, T30, T45, T60, and NCF60 plates, respectively, to terminate the reaction.
All sample plates were shaken and centrifuged for 10 min. 80 μL of the supernatant of a test sample was taken and diluted into 240 μL of a mixture of acetonitrile and water (1:9, V/V) containing 0.1% formic acid for LC-MS/MS analysis.
By calculating the corresponding time point and the remaining percentage of a compound, the half-life T1/2 and clearance rate CLint(liver) of the compound in human liver microsome metabolism were obtained.

[3] = target: human HPK1 (Homo sapiens (Human), UniProt Q92918); assay: Kinase activity assay using ADP-Glo method (Method 2); type: biochemical; details: HPK1 enzyme concentration 0.1 nM; ATP concentration 10 μM
Sequence of human HPK1 (Q92918 whole entry): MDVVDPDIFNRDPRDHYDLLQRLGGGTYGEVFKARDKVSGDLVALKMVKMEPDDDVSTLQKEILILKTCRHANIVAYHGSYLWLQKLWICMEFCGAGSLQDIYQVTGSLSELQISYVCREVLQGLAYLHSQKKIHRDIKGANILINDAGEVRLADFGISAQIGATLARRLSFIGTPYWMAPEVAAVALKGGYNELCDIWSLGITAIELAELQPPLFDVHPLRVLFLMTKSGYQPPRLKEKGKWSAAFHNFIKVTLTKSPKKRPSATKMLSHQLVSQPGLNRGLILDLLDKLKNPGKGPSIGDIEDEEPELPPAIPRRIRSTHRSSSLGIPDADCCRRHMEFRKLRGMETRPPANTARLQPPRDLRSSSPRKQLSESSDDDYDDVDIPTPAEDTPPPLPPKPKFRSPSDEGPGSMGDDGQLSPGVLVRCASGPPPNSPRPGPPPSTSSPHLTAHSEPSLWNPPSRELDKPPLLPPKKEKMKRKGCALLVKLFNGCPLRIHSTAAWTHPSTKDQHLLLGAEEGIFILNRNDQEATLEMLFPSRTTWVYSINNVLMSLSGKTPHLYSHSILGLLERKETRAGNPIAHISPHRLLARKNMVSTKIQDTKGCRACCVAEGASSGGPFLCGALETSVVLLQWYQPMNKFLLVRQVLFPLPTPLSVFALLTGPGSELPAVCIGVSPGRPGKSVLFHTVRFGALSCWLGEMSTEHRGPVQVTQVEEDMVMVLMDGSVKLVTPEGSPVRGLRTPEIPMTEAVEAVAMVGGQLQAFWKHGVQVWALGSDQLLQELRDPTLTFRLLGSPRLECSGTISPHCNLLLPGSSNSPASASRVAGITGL
Experimental: Method 2: The IC50 value was assayed by the kinase activity assay using ADP-Glo method to evaluate the inhibitory ability of a test compound on human HPK1.
Enzyme buffer conditions: 50 mM Hepes (pH 7.5), 10 mM MgCl2, 1 mM EGTA, 0.01% Brij35, 2 mM DTT. […]
as §1, with “4 μL of ADP-Glo was transferred to the 384 reaction plate, and centrifuged at 1000 rpm/min for 1 min.” left out, “8 μL of detection solution was transferred to the 384 reaction plate, and centrifuged at 1000 rpm/min for 1 min.” left out
as §2

Sequence of human GLK (Q8IVH8 whole entry): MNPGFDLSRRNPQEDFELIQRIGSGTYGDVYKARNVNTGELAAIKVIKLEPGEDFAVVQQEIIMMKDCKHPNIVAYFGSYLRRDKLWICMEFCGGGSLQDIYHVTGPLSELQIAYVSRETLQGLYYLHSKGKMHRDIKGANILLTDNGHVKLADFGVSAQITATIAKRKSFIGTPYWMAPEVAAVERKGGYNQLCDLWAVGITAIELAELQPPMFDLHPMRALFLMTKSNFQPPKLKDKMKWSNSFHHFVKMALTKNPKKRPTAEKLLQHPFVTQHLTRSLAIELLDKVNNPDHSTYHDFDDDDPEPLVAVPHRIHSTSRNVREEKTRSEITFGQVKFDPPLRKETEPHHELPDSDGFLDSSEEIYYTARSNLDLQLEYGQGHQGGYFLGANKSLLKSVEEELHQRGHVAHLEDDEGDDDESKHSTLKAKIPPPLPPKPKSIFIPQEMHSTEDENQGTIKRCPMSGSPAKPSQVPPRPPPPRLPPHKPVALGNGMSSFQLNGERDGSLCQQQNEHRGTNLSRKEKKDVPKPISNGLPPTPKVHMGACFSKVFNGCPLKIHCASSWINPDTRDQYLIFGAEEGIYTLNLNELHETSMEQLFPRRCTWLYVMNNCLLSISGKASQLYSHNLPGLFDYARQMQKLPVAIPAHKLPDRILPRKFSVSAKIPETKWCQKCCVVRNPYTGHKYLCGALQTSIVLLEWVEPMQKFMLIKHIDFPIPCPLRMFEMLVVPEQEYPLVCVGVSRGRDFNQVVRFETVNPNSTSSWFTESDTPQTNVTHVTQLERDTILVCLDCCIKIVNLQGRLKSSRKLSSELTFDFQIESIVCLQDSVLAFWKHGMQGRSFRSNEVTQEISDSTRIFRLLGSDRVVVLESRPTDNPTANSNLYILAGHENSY

Row | Compound | IC50 [1] | CLint(liver) [2] | T1/2 [2] | IC50 [3] | CLint scaled at 1 μM [2] | half-life at 1 μM [2]
1 | Cn1ccc2c(-c3ncc(Nc4ccc5c(n4)OC[C@@H]4COCCN54)c4c3CNC4=O)ccnc21 [Compound 4] | 594 nM | 35 mL/min/kg | 36 min | 0.62 nM | – | –
2 | O=C1NCc2c(-c3cnc4cc(F)ccn34)ccc(Nc3ccc4c(n3)OC[C@@H]3COCCN43)c21 [Compound 8] | 154 nM | – | – | 2 nM | 37 mL/min/kg | 34 min
